In test [1] the target is T1, Nonstructural protein 3 (Zika virus, UniProt A0A024AXB9). Put plainly: Functional biochemical assay to identify treatments for viral infectious disease that targets Zika NS2B-NS3 protease. Utilizing a direct enzyme activity measurement method, reading the fluorescence intensity is used to characterize the relative potency of inhibitors as IC50. More on the design: species or system PRVABC59.

In test [2] the target is T1, Nonstructural protein 3. Put plainly: Functional biochemical assay to identify treatments for viral infectious disease that targets Zika NS2B-NS3 protease. Utilizing a direct enzyme activity measurement method, reading the fluorescence intensity is used to characterize the relative potency of inhibitors as IC50. Synthetic construct has been made based on Zika virus (strain PRVABC59) by Centre for Medicines Discovery, University of Oxford, and the assay has been performed by Enamine biological services, Bienta Ltd.The protocol is publicly available: dx.doi.org/10.17504/protocols.io.36wgqn273gk5/v1.

Values joined by “and” are separate entries in the source; they are usually repeats but may differ in a detail not shown here. Identical values can stand only once.

T1 sequence (A0A024AXB9 whole entry): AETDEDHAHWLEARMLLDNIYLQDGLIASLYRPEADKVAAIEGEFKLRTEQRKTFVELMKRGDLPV

Broadly, the IC50 is the concentration that inhibits the measured activity by half. A low value points to greater potency. Turning to `Cc1c(C(=O)Nc2cccc(CS(C)(=O)=O)c2)cc(C2CC2)n1C`, the 50% inhibitory concentration (IC50) against Nonstructural protein 3 [1] and on Nonstructural protein 3 [2] was over 25000 nM each time.
Turning to `O=C1Cc2c(cccc2C(=O)Nc2ccnn2Cc2ccncc2)N1`, the IC50 against Nonstructural protein 3 [1] and on Nonstructural protein 3 [2] was over 25000 nM in each case.
With `NC(=O)COc1ccc(Br)cc1[C@H](Nc1ccc2c(c1)CNC2)C(=O)NCC(F)F`, the IC50 on Nonstructural protein 3 [1] is 69 nM and 55 nM; against Nonstructural protein 3 [2] it was 193 nM and 233 nM.
For the molecule `CC(C)CNC(=O)c1cc(Cl)cc2[nH]c(-c3cccc(C#N)c3)nc12`, the IC50 on Nonstructural protein 3 [1] and against Nonstructural protein 3 [2] was over 25000 nM throughout.
Regarding `Cn1nc(CNc2cc(-c3cccnc3)ccn2)cc1C1CC1`, the IC50 on Nonstructural protein 3 [1] and at Nonstructural protein 3 [2] was over 25000 nM in each case.
For `CC(=O)N(c1ccc2c(c1)CNC2)[C@]1(c2cc(Cl)cc(C3CC3)c2)CN(C)C1=O`, the IC50 at Nonstructural protein 3 [1] is 22700 nM; against Nonstructural protein 3 [2] it was over 25000 nM.
On the same counts, the results for `CO[C@H]1Cc2ccc(NC(=O)c3cc(C4CC4)n(C)c3C)cc2C1` are over 25000 nM and over 25000 nM.
On the same counts, the results for `O=C1Cc2c(cccc2C(=O)Nc2nnc3n2CCCS3)N1` are over 25000 nM and over 25000 nM.
As to `O=C(O)COc1ccc(Cl)cc1[C@H](Nc1ccc2c(c1)CNC2)C(=O)NCC(F)F`, the IC50 at Nonstructural protein 3 [1] came to 182 nM; on Nonstructural protein 3 [2], 260 nM.
For the molecule `NC(=O)c1cn(C2CCCC2)nc1NC(=O)c1cccc2c1CC(=O)N2`, the IC50 on Nonstructural protein 3 [1] and against Nonstructural protein 3 [2] was over 25000 nM in each case.
For the molecule `C=C(C)c1ccc(Cl)cc1[C@H](Nc1ccc2c(c1)CNC2)C(=O)NCC(F)F`, the concentration for half-maximal inhibition (IC50) on Nonstructural protein 3 [1] is 297 nM; against Nonstructural protein 3 [2], 320 nM and 334 nM.
Take `N#CCOc1ccc(Br)cc1[C@H](Nc1ccc2c(c1)CNC2)C(=O)NCC(F)F`: the IC50 against Nonstructural protein 3 [1] is 57 nM and 42 nM; against Nonstructural protein 3 [2], 135 nM and 143 nM.
As for `Clc1cc(CNc2ccc3c(n2)CNC3)c2cn[nH]c2c1`, the 50% inhibitory concentration (IC50) on Nonstructural protein 3 [1] and against Nonstructural protein 3 [2] was over 25000 nM in each case.
For the molecule `Cc1c(C(=O)Nc2cccc(-c3nc(C4CC4)no3)c2)cc(C2CC2)n1C`, the 50% inhibitory concentration (IC50) against Nonstructural protein 3 [1] and against Nonstructural protein 3 [2] was over 25000 nM each time.
For `CC(=O)N1CC[C@]2(C1)C(=O)Nc1cccc(C(=O)Nc3ccc4c(c3)CNC4)c12`, the results for the half-maximal inhibitory concentration (IC50) against Nonstructural protein 3 [1] and against Nonstructural protein 3 [2] were 126 nM and 714 nM, respectively.
In the same order, the values of `N#Cc1cccc(-c2nc3c(C(=O)Nc4cccc(F)c4)cc(Cl)cc3[nH]2)c1` are over 25000 nM and over 25000 nM.
Turning to `O=C(NCC(F)F)[C@H](Nc1cc2c(cc1Br)CNC2)c1cc(Cl)cc(C2CC2)c1`, the IC50 against Nonstructural protein 3 [1] is 19 nM and 13 nM; on Nonstructural protein 3 [2], 106 nM and 91 nM.
Consider `O=C(Nc1ccc2c(c1)CN[C@H]2CC1CC1)c1cc(F)cc2[nH]ncc12`, for which the 50% inhibitory concentration (IC50) on Nonstructural protein 3 [1] is 192 nM; against Nonstructural protein 3 [2] it was 317 nM and 284 nM.
On to `CC1(C)NCc2cc(NC(=O)c3cc(F)cc4[nH]ncc34)ccc21`, for which the IC50 is 9190 nM at Nonstructural protein 3 [1]; 18100 nM and > 25000 nM against Nonstructural protein 3 [2].
As to `CC(C)(C)OC(=O)N1Cc2ccc(N[C@H](C(=O)O)c3cc(Cl)cc4[nH]ncc34)cc2C1`, the IC50 at Nonstructural protein 3 [1] and at Nonstructural protein 3 [2] was over 25000 nM throughout.
Turning to `Cc1c(C(=O)Nc2cccc(-c3ccoc3)c2)cc(C2CC2)n1C`, the 50% inhibitory concentration (IC50) at Nonstructural protein 3 [1] and at Nonstructural protein 3 [2] was over 25000 nM each time.
Regarding `C[C@H]1NCc2ccc(NC(=O)c3cc(Cl)cc4[nH]ncc34)cc21`, the IC50 against Nonstructural protein 3 [1] is 1510 nM; at Nonstructural protein 3 [2], 3580 nM and 3950 nM.
In the case of `CC(=O)N[C@]1(C)C(=O)Nc2cc(F)cc(C(=O)Nc3ccc4c(c3)CNC4)c21`, the IC50 was found to be 2380 nM against Nonstructural protein 3 [1] and 3720 nM against Nonstructural protein 3 [2].
In the same order, the values of `O=C1Cc2c(cccc2C(=O)Nc2cc(Br)c3ncnn3c2)N1` are over 25000 nM and over 25000 nM.
As for `C[C@]1(S(C)(=O)=O)C(=O)Nc2cc(F)cc(C(=O)Nc3ccc4c(c3)CNC4)c21`, the IC50 is 3990 nM against Nonstructural protein 3 [1]; 7760 nM and 9210 nM against Nonstructural protein 3 [2].
In the case of `NCCCn1c(C2CC2)cc(C(=O)Nc2cc([C@H]3CCOC3)ccn2)c1C1CC1`, the half-maximal inhibitory concentration (IC50) against Nonstructural protein 3 [1] and on Nonstructural protein 3 [2] was over 25000 nM in each case.
For `Cc1c(C(=O)Nc2ccc3c(c2F)CCN(C)C3=O)cc(C2CC2)n1C`, the 50% inhibitory concentration (IC50) on Nonstructural protein 3 [1] and against Nonstructural protein 3 [2] was over 25000 nM in each case.
For the molecule `Cc1c(C(=O)Nc2cccc(Cn3cccn3)c2)cc(C2CC2)n1C`, the IC50 against Nonstructural protein 3 [1] and against Nonstructural protein 3 [2] was over 25000 nM throughout.
With `O=C1Cc2c(cccc2C(=O)Nc2cccc(-c3cn[nH]c3)c2)N1`, the IC50 against Nonstructural protein 3 [1] and against Nonstructural protein 3 [2] was over 25000 nM throughout.
On to `O=C(Nc1ccc2c(c1)CN[C@H]2C1CC1)c1cc(F)cc2[nH]ncc12`, for which the half-maximal inhibitory concentration (IC50) on Nonstructural protein 3 [1] was 215 nM; at Nonstructural protein 3 [2] it was 255 nM and 550 nM.
Take `Cc1c(C(=O)Nc2ccc3c(c2)C(=O)NC3)cc(C2CC2)n1C`: the concentration for half-maximal inhibition (IC50) at Nonstructural protein 3 [1] and against Nonstructural protein 3 [2] was over 25000 nM each time.
Take `O=C(NCC(F)F)[C@H](Nc1ccc2c(c1)CNC2)c1cc(Br)cc2cn[nH]c12`: the concentration for half-maximal inhibition (IC50) is 29 nM and 20 nM at Nonstructural protein 3 [1]; 141 nM and 127 nM against Nonstructural protein 3 [2].
`N#Cc1cccc(-c2nc3c(C(=O)Nc4ccccn4)cc(Cl)cc3[nH]2)c1`: the IC50 at Nonstructural protein 3 [1] and on Nonstructural protein 3 [2] was over 25000 nM in each case.
Turning to `Nc1ccncc1-c1cc(F)cc(C(=O)Nc2ccc3c(c2)CNC3)c1`, the IC50 was 54 nM and 38 nM at Nonstructural protein 3 [1]; 146 nM on Nonstructural protein 3 [2].
On to `C[C@H]1C(=O)Nc2ccc(C(=O)Nc3ccc4c(c3)CNC4)cc21`, for which the concentration for half-maximal inhibition (IC50) was 10700 nM at Nonstructural protein 3 [1]; 4160 nM and 3340 nM on Nonstructural protein 3 [2].
As for `O=C1C[C@H](c2cccc(-c3cc(F)cc(C(=O)Nc4ccc5c(c4)CNC5)c3)c2)N1`, the IC50 on Nonstructural protein 3 [1] is 77 nM and 66 nM; against Nonstructural protein 3 [2] it was 130 nM and 131 nM.
Consider `CC(=O)N(c1ccc2c(c1)CNC2)[C@]1(c2cc(Cl)cc(C3CC3)c2)CCCN(C)C1=O`, for which the IC50 on Nonstructural protein 3 [1] and on Nonstructural protein 3 [2] was over 25000 nM throughout.
With `O=C1Cc2c(cccc2C(=O)Nc2nc([C@H]3CCCOC3)cs2)N1`, the IC50 against Nonstructural protein 3 [1] and against Nonstructural protein 3 [2] was over 25000 nM in each case.
In the case of `Cc1c(C(=O)Nc2cccc(CN3CCCC3=O)c2)cc(C2CC2)n1C`, the IC50 at Nonstructural protein 3 [1] and against Nonstructural protein 3 [2] was over 25000 nM each time.
On to `CN(C)C(=O)C[C@H]1NCc2cc(NC(=O)c3cc(F)cc4[nH]ncc34)ccc21`, for which the concentration for half-maximal inhibition (IC50) at Nonstructural protein 3 [1] is 487 nM; against Nonstructural protein 3 [2], 502 nM and 1320 nM.
On to `NCCc1cccc(NC(=O)c2cccc3c2CC(=O)N3)c1`, for which the half-inhibitory concentration (IC50) against Nonstructural protein 3 [1] amounted to 333 nM; at Nonstructural protein 3 [2] it was 533 nM.
For `C[C@H]1NCc2cc(NC(=O)c3cc(F)cc4[nH]ncc34)ccc21`, the IC50 at Nonstructural protein 3 [1] is 488 nM; against Nonstructural protein 3 [2], 646 nM and 1460 nM.
As for `O=C1Cc2c(cccc2C(=O)Nc2ccc(N3CCOC3=O)nc2)N1`, the IC50 against Nonstructural protein 3 [1] and at Nonstructural protein 3 [2] was over 25000 nM each time.
For the molecule `O=C(NCC(F)F)[C@H](Nc1ccc2c(c1)CNC2)c1cc(Br)ccc1Oc1ccc(Cl)c(Cl)c1`, the 50% inhibitory concentration (IC50) on Nonstructural protein 3 [1] was 212 nM; on Nonstructural protein 3 [2], 198 nM and 238 nM.
As to `Cc1cc(NC(=O)c2cc(C3CC3)n(C)c2C)ccc1OC1CCOCC1`, the concentration for half-maximal inhibition (IC50) at Nonstructural protein 3 [1] and at Nonstructural protein 3 [2] was over 25000 nM throughout.
Consider `O=C(Nc1ccc2c(c1)CN[C@H]2C(=O)O)c1cc(F)cc2[nH]ncc12`, for which the half-maximal inhibitory concentration (IC50) at Nonstructural protein 3 [1] is 1330 nM; on Nonstructural protein 3 [2], 3180 nM and 3280 nM.
In the case of `Cc1c(C(=O)Nc2ccc3c(c2)CN(C)C3=O)cc(C2CC2)n1C`, the 50% inhibitory concentration (IC50) at Nonstructural protein 3 [1] and at Nonstructural protein 3 [2] was over 25000 nM in each case.
For `Cn1nc(CNc2cc([C@H]3CCOC3)ccn2)cc1C1CC1`, the 50% inhibitory concentration (IC50) on Nonstructural protein 3 [1] and on Nonstructural protein 3 [2] was over 25000 nM in each case.
Take `C[C@H](NC(=O)c1cccc2c1CC(=O)N2)c1nnc2n1CCCC2`: the half-maximal inhibitory concentration (IC50) at Nonstructural protein 3 [1] and against Nonstructural protein 3 [2] was over 25000 nM throughout.
In the case of `CC(C)n1nncc1-c1cc(F)cc(C(=O)Nc2ccc3c(c2)CNC3)c1`, the results for the IC50 at Nonstructural protein 3 [1] and at Nonstructural protein 3 [2] were 1870 nM and 3460 nM, respectively.

For the origin of these results see ChEMBL document CHEMBL5604062, “ASAP - ZIKV NS2B-NS3 protease fluorescence dose response” (2024).
